Our source for the IC50 and melting point values is US7511041B2, “Fused azole-pyrimidine derivatives” (Bayer Pharmaceuticals Corporation, priority 2002, dated 2009).

Series [1] addresses T1, Recombinant human PI3Kγ (full length human PI3K p110γ) (Homo sapiens, UniProt P48736).
T1 construct: full length human PI3K p110γ fused with a His6-tag at the C-terminus; His6 (C); purchased ALEXIS BIOCHEMICALS #201-055-C010; host or cells: S. frugiperda 9 insect cells
As to the kind of experiment: Kinase assay of PI3Kγ (solid-phase lipid kinase assay). The series is classed as biochemical. Particulars: in vitro PI3K-γ inhibitory activity, class symbols A-D; read-out: in vitro PI3K-gamma.

T1 sequence (P48736 whole entry, the tested form may be a part): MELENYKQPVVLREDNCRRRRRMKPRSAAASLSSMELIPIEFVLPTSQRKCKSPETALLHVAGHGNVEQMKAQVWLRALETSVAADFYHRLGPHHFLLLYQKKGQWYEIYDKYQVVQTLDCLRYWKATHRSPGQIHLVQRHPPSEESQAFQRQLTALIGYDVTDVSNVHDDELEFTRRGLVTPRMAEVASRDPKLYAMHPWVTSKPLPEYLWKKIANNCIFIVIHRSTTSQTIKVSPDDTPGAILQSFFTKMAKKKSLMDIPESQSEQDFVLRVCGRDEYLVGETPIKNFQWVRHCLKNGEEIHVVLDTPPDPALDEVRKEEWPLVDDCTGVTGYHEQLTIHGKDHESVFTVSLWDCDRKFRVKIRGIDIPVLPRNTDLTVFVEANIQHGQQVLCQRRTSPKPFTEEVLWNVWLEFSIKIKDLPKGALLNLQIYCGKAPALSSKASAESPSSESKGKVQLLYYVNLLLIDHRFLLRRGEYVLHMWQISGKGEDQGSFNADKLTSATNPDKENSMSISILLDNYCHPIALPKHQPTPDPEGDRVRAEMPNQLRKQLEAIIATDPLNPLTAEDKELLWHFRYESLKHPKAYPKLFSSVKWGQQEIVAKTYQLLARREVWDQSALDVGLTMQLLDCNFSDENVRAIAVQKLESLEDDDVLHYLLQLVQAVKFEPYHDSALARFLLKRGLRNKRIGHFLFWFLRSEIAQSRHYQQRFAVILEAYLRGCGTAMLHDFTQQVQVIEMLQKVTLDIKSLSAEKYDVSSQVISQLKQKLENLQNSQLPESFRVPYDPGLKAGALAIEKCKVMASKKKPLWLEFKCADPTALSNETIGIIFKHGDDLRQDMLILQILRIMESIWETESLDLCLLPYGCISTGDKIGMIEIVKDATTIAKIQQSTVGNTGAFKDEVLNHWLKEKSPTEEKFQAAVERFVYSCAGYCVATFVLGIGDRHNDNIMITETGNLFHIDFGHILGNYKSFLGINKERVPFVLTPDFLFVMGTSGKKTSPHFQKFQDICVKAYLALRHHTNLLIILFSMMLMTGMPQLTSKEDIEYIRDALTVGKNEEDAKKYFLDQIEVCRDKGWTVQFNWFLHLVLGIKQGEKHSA

Broadly, the melting point is the temperature of the solid-liquid transition. In turn, `O=C(NC1=Nc2ccccc2C2=NCCN12)c1ccco1.O=C(O)C(F)(F)F` [Example 2-300] had a melting point of 230 to 232 °C. Further, the IC50 in series [1] was 100 to 500 nM.
The corresponding values for `O=C(NC1=Nc2ccccc2C2=NCCN12)c1ccc(Cl)s1` [Example 2-301] are 198 °C (dec.) and more than 2000 nM.
On the same counts, the results for `Cc1ccc(C(=O)NC2=Nc3ccccc3C3=NCCN23)s1` [Example 2-302] are 192 to 193 °C and 500 to 2000 nM.
The corresponding values for `O=C(NC1=Nc2ccccc2C2=NCCN12)c1ccc([N+](=O)[O-])s1` [Example 2-303] are 286 to 287 °C and more than 2000 nM.
In turn, `O=C(NC1=Nc2ccccc2C2=NCCN12)c1csc([N+](=O)[O-])c1` [Example 2-305] showed a melting point of 269 to 270 °C. The IC50 in series [1] is more than 2000 nM.
On the same counts, the results for `O=C(NC1=Nc2ccccc2C2=NCCN12)c1csnn1` [Example 2-307] are 219 °C (dec.) and 500 to 2000 nM.
As for `Cc1nc2cc(C(=O)NC3=Nc4ccccc4C4=NCCN34)ccc2[nH]1.Cl` [Example 2-308], the melting point was 344 °C (dec.). Also, the IC50 in series [1] was 100 to 500 nM.
In turn, `CC(C)n1c(C(F)(F)F)nc2cc(C(=O)NC3=Nc4ccccc4C4=NCCN34)ccc21` [Example 2-309] gave a melting point of 250 to 253 °C. For the same compound, the IC50 in series [1] was more than 2000 nM.
On the same counts, the results for `O=C(NC1=Nc2ccccc2C2=NCCN12)c1ccc2[nH]nnc2c1.O=C(O)C(F)(F)F` [Example 2-310] are 252 °C (dec.) and 100 to 500 nM.
The corresponding values for `CC(C)n1nnc2cc(C(=O)NC3=Nc4ccccc4C4=NCCN34)ccc21` [Example 2-311] are 202 to 203 °C and more than 2000 nM.
As for `O=C(NC1=Nc2ccccc2C2=NCCN12)c1ccc2ncsc2c1` [Example 2-312], the melting point was in the range of 303 to 305 °C. For the same compound, the IC50 in series [1] was more than 2000 nM.
On to `Cl.O=C(NC1=Nc2ccccc2C2=NCCN12)c1ccc2ncsc2c1` [Example 2-313], for which the melting point is 314 °C (dec.). For the same compound, the IC50 in series [1] fell in the range of 500 to 2000 nM.
The corresponding values for `Cn1c(C(=O)NC2=Nc3ccccc3C3=NCCN23)cc2ccccc21` [Example 2-314] are 259 to 260 °C and more than 2000 nM.
The corresponding values for `Cn1cc(C(=O)NC2=Nc3ccccc3C3=NCCN23)c2ccccc21` [Example 2-315] are 288 to 289 °C and more than 2000 nM.
On the same counts, the results for `O=C(NC1=Nc2ccccc2C2=NCCN12)c1cnc2ccccc2c1` [Example 2-316] are 263 to 264 °C and more than 2000 nM.
In the case of `Cl.O=C(NC1=Nc2ccccc2C2=NCCN12)c1cnc2ccccc2c1` [Example 2-317], the melting point was 319 °C (dec.). In series [1], the IC50 fell in the range of 100 to 500 nM.
The corresponding values for `Cl.O=C(NC1=Nc2ccccc2C2=NCCN12)c1cccc2cccnc12` [Example 2-318] are 316 °C (dec.) and more than 2000 nM.
The corresponding values for `O=C(NC1=Nc2ccccc2C2=NCCN12)c1csc(-c2cccnc2)n1` [Example 2-319] are 260 to 261 °C and more than 2000 nM.
On the same counts, the results for `O=C(NC1=Nc2ccccc2C2=NCCN12)c1csc(-c2ccncc2)n1` [Example 2-321] are 281 °C (dec.) and more than 2000 nM.
With `COc1ccc(CC(=O)NC2=Nc3ccccc3C3=NCCN23)cc1` [Example 2-323], the melting point was 167 to 168 °C. In addition, in series [1], the IC50 is more than 2000 nM.
The compound `O=C(Cc1cccs1)NC1=Nc2ccccc2C2=NCCN12` [Example 2-324] gave a melting point of 122 to 123 °C. In addition, the IC50 in series [1] is more than 2000 nM.
The corresponding values for `O=C(COc1ccccc1)NC1=Nc2ccccc2C2=NCCN12` [Example 2-325] are 149 to 150 °C and more than 2000 nM.
The corresponding values for `CC(=O)NC1=Nc2ccccc2C2=NCCN12` [Example 2-326] are 189 °C and more than 2000 nM.
Compound `CCCC(=O)NC1=Nc2ccccc2C2=NCCN12` [Example 2-328] gave a melting point of 121 to 122 °C. Further, in series [1], the IC50 was more than 2000 nM.
On the same counts, the results for `CC(C)CC(=O)NC1=Nc2ccccc2C2=NCCN12` [Example 2-329] are 154 °C (dec.) and more than 2000 nM.
The corresponding values for `CC(C)C(=O)NC1=Nc2ccccc2C2=NCCN12` [Example 2-330] are 104 to 105 °C and more than 2000 nM.
On the same counts, the results for `CC(C)(C)C(=O)NC1=Nc2ccccc2C2=NCCN12` [Example 2-331] are 135 to 136 °C and more than 2000 nM.
As to `O=C(NC1=Nc2ccccc2C2=NCCN12)C(Cl)(Cl)Cl` [Example 2-332], the melting point was 194 °C (dec.). Moreover, the IC50 in series [1] is 500 to 2000 nM.
On the same counts, the results for `O=C(NC1=Nc2ccccc2C2=NCCN12)C(F)(F)C(F)(F)F` [Example 2-333] are 210 to 211 °C and more than 2000 nM.
The corresponding values for `O=C(NC1=Nc2ccccc2C2=NCCN12)C1CC1` [Example 2-334] are 164 to 165 °C and more than 2000 nM.
On the same counts, the results for `O=C(NC1=Nc2ccccc2C2=NCCN12)C1CCCCC1` [Example 2-335] are 170 to 172 °C and more than 2000 nM.
`O=C(NC1=Nc2ccccc2C2=NCCN12)C1CCCCN1C(=O)OCc1ccccc1` (stereo not drawn) [Example 2-337]: the melting point lay within 119 to 120 °C. The IC50 in series [1] was more than 2000 nM.
`CC(C)(C)OC(=O)N1CCCC(C(=O)NC2=Nc3ccccc3C3=NCCN23)C1` (stereo not drawn) [Example 2-338] came in with a melting point of 147 to 148 °C. In addition, the IC50 in series [1] is more than 2000 nM.
The corresponding values for `O=C(NC1=Nc2ccccc2C2=NCCN12)C1CCNCC1` [Example 2-339] are 179 to 180 °C and more than 2000 nM.
The corresponding values for `O=C(NC1=Nc2ccccc2C2=NCCN12)C1CCN(C(=O)OCc2ccccc2)CC1` [Example 2-341] are 111 to 112 °C and more than 2000 nM.
On the same counts, the results for `COc1cc2c(cc1OC)C1=NCCN1C(NC(C)=O)=N2` [Example 2-343] are 240 to 241 °C and more than 2000 nM.
`CCC(=O)NC1=Nc2cc(OC)c(OC)cc2C2=NCCN12` [Example 2-344] registered a melting point of 224 to 225 °C. The IC50 in series [1] is more than 2000 nM.
On to `CN(C)c1ccc2c(c1)C1=NCCN1C(NC(=O)c1cccnc1)=N2` [Example 2-345], for which the melting point turned out to be 269 °C. For the same compound, in series [1], the IC50 was 500 to 2000 nM.
Consider `CN(C)c1ccc2c(c1)C1=NCCN1C(NC(=O)c1cccs1)=N2` [Example 2-346], for which the melting point worked out at 272 °C. Moreover, the IC50 in series [1] was more than 2000 nM.
`O=C(NC1=Nc2ccc(N3CCOCC3)cc2C2=NCCN12)c1cccnc1` [Example 2-347] returned a melting point of 244 °C. For the same compound, in series [1], the IC50 was more than 2000 nM.
The corresponding values for `O=C(NC1=Nc2ccc(N3CCOCC3)cc2C2=NCCN12)c1cccs1` [Example 2-348] are 124 °C and more than 2000 nM.
On the same counts, the results for `O=C(NC1=Nc2cc(C(F)(F)F)ccc2C2=NCCN12)c1cccs1` [Example 2-349] are 226 °C and 100 to 500 nM.
The corresponding values for `Cl.O=C(NC1=Nc2cc(C(F)(F)F)ccc2C2=NCCN12)c1cccs1` [Example 2-350] are 292 °C and 500 to 2000 nM.
`O=C(NC1=Nc2ccc(Br)cc2C2=NCCN12)c1cccs1` [Example 2-351] had a melting point of 232 °C. In addition, in series [1], the IC50 was more than 2000 nM.
The corresponding values for `Cl.O=C(NC1=Nc2ccc(Br)cc2C2=NCCN12)c1cccs1` [Example 2-352] are 275 °C and 500 to 2000 nM.
The corresponding values for `O=C(NC1=Nc2cc(Cl)ccc2C2=NCCN12)c1cccnc1` [Example 2-353] are 254 °C and 100 to 500 nM.
For the compound `O=C(NC1=Nc2cc(Cl)ccc2C2=NCCN12)c1cccs1` [Example 2-354], the melting point stood at 228 °C. For the same compound, the IC50 in series [1] was in the range of 500 to 2000 nM.
On the same counts, the results for `O=C(NC1=Nc2ccc(Cl)cc2C2=NCCN12)c1cccs1` [Example 2-355] are 174 °C and 500 to 2000 nM.
On the same counts, the results for `Cl.O=C(NC1=Nc2ccc(Cl)cc2C2=NCCN12)c1cccs1` [Example 2-356] are 276 °C and 100 to 500 nM.
With `O=C(NC1=Nc2cccc(Cl)c2C2=NCCN12)c1cccnc1` [Example 2-357], the melting point was 243 °C. In addition, the IC50 in series [1] fell in the range of 500 to 2000 nM.
`O=C(NC1=Nc2cccc(Cl)c2C2=NCCN12)c1cccs1` [Example 2-358] registered a melting point of 233 °C. Besides, in series [1], the IC50 was more than 2000 nM.
`Cl.O=C(NC1=Nc2cccc(Cl)c2C2=NCCN12)c1cccs1` [Example 2-359] gave a melting point of 227 °C. Moreover, the IC50 in series [1] was in the range of 500 to 2000 nM.
The corresponding values for `O=C(NC1=Nc2ccc(F)cc2C2=NCCN12)c1cccnc1` [Example 2-360] are 242 °C and 500 to 2000 nM.
The corresponding values for `O=C(NC1=Nc2ccc([N+](=O)[O-])cc2C2=NCCN12)c1cccnc1.O=C(O)C(F)(F)F` [Example 2-362] are 224 °C and 500 to 2000 nM.
On the same counts, the results for `C[C@H]1CN2C(NC(=O)c3cccnc3)=Nc3ccccc3C2=N1.Cl` [Example 2-363] are 204 °C (dec.) and more than 2000 nM.
For the compound `CCC(C)[C@H]1CN2C(NC(=O)c3cccnc3)=Nc3ccccc3C2=N1.Cl` (stereo partly drawn) [Example 2-364], the melting point was in the range of 230 to 240 °C. In addition, the IC50 in series [1] was more than 2000 nM.
With `Cl.NC(=O)C1CN2C(NC(=O)c3cccnc3)=Nc3ccccc3C2=N1` (stereo not drawn) [Example 2-365], the melting point was 274 °C (dec.). In series [1], the IC50 was more than 2000 nM.
